Active and inactive are the calls of the source. The calls are words filed in the database; no cut-off is given here.
Tests used:
T47D [1] = experiment: Anticancer activity against human T47D cells harbouring ERalphaY537S mutant assessed as cell growth inhibition incubated for 24 hrs by alamar blue assay; type: functional, cell-based
MCF7 [2] = experiment: Anticancer activity against human MCF7 cells assessed as cell growth inhibition incubated for 24 hrs by alamar blue assay; type: functional, cell-based; conditions: MCF7, 24 h
T47D [3] = experiment: Anticancer activity against human T47D cells harbouring ERalphaD538G mutant assessed as cell growth inhibition incubated for 24 hrs by alamar blue assay; type: functional, cell-based
MCF7 [4] = experiment: Anticancer activity against human MCF7 cells assessed as reduction in cell viability incubated for 24 hrs in presence of 10% CD-FBS by alamar blue assay; type: functional, cell-based
MCF7 [5] = experiment: Anticancer activity against ERalpha positive human MCF7 cells assessed as cell growth inhibition incubated for 72 hrs by alamar blue assay; type: functional, cell-based; conditions: MCF7, 72 h
T47D [6] = experiment: Anticancer activity against ERalpha positive human T47D cells assessed as cell growth inhibition incubated for 24 hrs by alamar blue assay; type: functional, cell-based
MDA-MB-436 [7] = experiment: Anticancer activity against ERalpha negative human MDA-MB-436 cells assessed as cell growth inhibition incubated for 24 hrs by alamar blue assay; type: functional, cell-based; conditions: MDA-MB-436, 24 h
MDA-MB-231 [8] = experiment: Anticancer activity against ERalpha negative human MDA-MB-231 cells assessed as cell growth inhibition incubated for 24 hrs by alamar blue assay; type: functional, cell-based; conditions: MDA-MB-231, 24 h
MDA-MB-231 [9] = experiment: Anticancer activity against ERalpha negative human MDA-MB-231 cells assessed as cell growth inhibition incubated for 72 hrs by alamar blue assay; type: functional, cell-based; conditions: MDA-MB-231, 72 h
MDA-MB-231 [10] = experiment: Anticancer activity against ERalpha negative human MDA-MB-231 cells assessed as cell growth inhibition incubated for 168 hrs by alamar blue assay; type: functional, cell-based; conditions: MDA-MB-231, 168 h
MDA-MB-436 [11] = experiment: Anticancer activity against ERalpha negative human MDA-MB-436 cells assessed as cell growth inhibition incubated for 72 hrs by alamar blue assay; type: functional, cell-based; conditions: MDA-MB-436, 72 h
HCT-116 [12] = experiment: Anticancer activity against ERalpha negative human HCT-116 cells assessed as cell growth inhibition incubated for 24 hrs by alamar blue assay; type: functional, cell-based; conditions: HCT-116, 24 h
HCT-116 [13] = experiment: Anticancer activity against ERalpha negative human HCT-116 cells assessed as cell growth inhibition incubated for 72 hrs by alamar blue assay; type: functional, cell-based; conditions: HCT-116, 72 h
HCT-116 [14] = experiment: Anticancer activity against ERalpha negative human HCT-116 cells assessed as cell growth inhibition incubated for 168 hrs by alamar blue assay; type: functional, cell-based; conditions: HCT-116, 168 h
HT-29 [15] = experiment: Anticancer activity against ERalpha negative human HT-29 cells assessed as cell growth inhibition incubated for 24 hrs by alamar blue assay; type: functional, cell-based; conditions: HT-29, 24 h
HT-29 [16] = experiment: Anticancer activity against ERalpha negative human HT-29 cells assessed as cell growth inhibition incubated for 72 hrs by alamar blue assay; type: functional, cell-based; conditions: HT-29, 72 h
[17] = Selectivity ratio of IC50 for human MDA-MB-231 cells to IC50 for human MCF7 cells; type: functional
[18] = Selectivity ratio of IC50 for human MDA-MB-436 cells to IC50 for human MCF7 cells; type: functional
[19] = Selectivity ratio of IC50 for human HCT-116 cells to IC50 for human MCF7 cells; type: functional
[20] = Selectivity ratio of IC50 for human HT-29 cells to IC50 for human MCF7 cells; type: functional
[21] = Cmax in CD-1 mouse at 20 mg/kg, iv by LC-MS/MS analysis; type: ADME, organism-based; set-up: dose 20 mg/kg, route iv; conditions: CD-1, mouse, in vivo, read-out: Cmax
[22] = Oral bioavailability in CD-1 mouse at 40 mg/kg by LC-MS/MS analysis; type: ADME, organism-based; conditions: in vivo
[23] = Stability of the compound in simulated gastric fluid assessed as half life measured upto 120 mins by LC-MS/MS analysis; type: ADME
[24] = AUC in CD-1 mouse at 20 mg/kg, iv by LC-MS/MS analysis; type: ADME, organism-based; set-up: dose 20 mg/kg, route iv; conditions: CD-1, mouse, in vivo, read-out: AUC
[25] = Half life in CD-1 mouse at 20 mg/kg, iv by LC-MS/MS analysis; type: ADME, organism-based; conditions: CD-1, mouse, in vivo
[26] = MRT in CD-1 mouse at 20 mg/kg, iv by LC-MS/MS analysis; type: ADME, organism-based; conditions: CD-1, mouse, in vivo, read-out: MRT
[27] = Clearance in CD-1 mouse at 20 mg/kg, iv by LC-MS/MS analysis; type: ADME, organism-based; conditions: in vivo
[28] = Volume of distribution at steady state in CD-1 mouse at 20 mg/kg, iv by LC-MS/MS analysis; type: ADME, organism-based; conditions: CD-1, mouse, in vivo, read-out: Vdss
[29] = Toxicity in po dosed CD-1 mouse assessed as maximum tolerated dose administered as single dose; type: organism-based; conditions: in vivo
[30] = Toxicity in iv dosed CD-1 mouse assessed as maximum tolerated dose administered as single dose; type: organism-based; conditions: in vivo
[31] = Toxicity in iv dosed Sprague-Dawley rat assessed as maximum tolerated dose administered as single dose; type: organism-based; conditions: in vivo
MCF7 [32] = experiment: Antitumor activity against human MCF7 cells xenografted in athymic nude mouse assessed as reduction in tumor growth at 5 mg/kg, iv administered once a week for three doses administered for 14 days; type: functional, organism-based; conditions: time 14.0 day
[33] = Toxicity in athymic nude mouse xenografted with human MCF7 cells assessed as change in body weight at 5 mg/kg, iv administered once a week for three doses administered for 14 days; type: organism-based; conditions: in vivo, 336 h, time 14 day
MCF7 [34] = experiment: Anticancer activity against human MCF7 cells assessed as reduction in cell viability incubated for 24 hrs in presence of 10% CD-FBS and 17-beta-estradiol by alamar blue assay; type: functional, cell-based
[35] = Stability of the compound in simulated gastric fluid assessed as compound remaining measured after 120 mins by LC-MS/MS; type: ADME; conditions: read-out: Stability

SMILES: O=C1Nc2c(C(F)(F)F)cccc2[C@]1(c1ccc(O)cc1)C1CCC(F)(F)CC1
- IC50 (T47D [1]): 7 nM
- IC50 (MCF7 [2]): 17 nM
- IC50 (T47D [3]): 9 nM
- Activity (MCF7 [4]): Active
- IC50 (MCF7 [5]): 17 nM
- IC50 (T47D [6]): 16 nM
- IC50 (MDA-MB-436 [7]): 64 µM
- IC50 (MDA-MB-231 [8]): 55 µM
- IC50 (MDA-MB-231 [9]): 55 µM
- IC50 (MDA-MB-231 [10]): 33 µM
- IC50 (MDA-MB-436 [11]): 55 µM
- IC50 (HCT-116 [12]): 55 µM
- IC50 (HCT-116 [13]): 55 µM
- IC50 (HCT-116 [14]): 42 µM
- IC50 (HT-29 [15]): 33 µM
- IC50 (HT-29 [16]): 27 µM
- Ratio IC50 [17]: 1900
- Ratio IC50 [18]: 3200
- Ratio IC50 [19]: 3200
- Ratio IC50 [20]: 1600
- Cmax [21]: 14700 ng/mL
- bioavailability [22]: 6%
- half-life [23]: 56 min
- AUC [24]: 6300 ng·h/mL
- half-life [25]: 18 min
- MRT [26]: 54 min
- clearance [27]: 52 mL/min/kg
- Vd [28]: 2.8 L/kg
- MTD [29]: > 200 mg/kg
- MTD [30]: 95 mg/kg
- MTD [31]: > 50 mg/kg
- Activity (MCF7 [32]): Active
- Activity [33]: Non-Toxic
- Activity (MCF7 [34]): Active
- remaining at 2 h [35]: 13%

— ChEMBL document CHEMBL5154712, “Activators of the Anticipatory Unfolded Protein Response with Enhanced Selectivity for Estrogen Receptor Positive Breast Cancer” (J Med Chem, 2022)
